Experimental data: PMC10303159, “Conjugation of Triterpenic Acids of Ursane and Oleanane Types with Mitochondria-Targeting Cation F16 Synergistically Enhanced Their Cytotoxicity against Tumor Cells” (Membranes, 2023)
Structures can show the parent of a compound that is named as a salt.

Columns and labels:
[1] = system: H1299 cells (human non-small cell lung cancer); experiment: MTT cytotoxicity assay, H1299; assay type: cell-based; conditions: mean ± SEM
From the text: (§1) All cell lines used in this study (human non-small cell lung cancer—H1299 (Accession Number—CRL-5803), human lung carcinoma—A549 (Accession Number—CCL-185), human breast adenocarcinoma—MCF-7 (Accession Number—HTB-22), human breast ductal carcinoma—BT474 (Accession Number—HTB-20)) were purchased from American Type Culture Collection (ATCC, Manassas, VA, USA). Human primary dermal fibroblasts (HPDF) derived from a patch of skin of healthy donors (n = 3) were obtained from the biobank of the Institute for Regenerative Medicine, Lomonosov Moscow State University, collection ID: MSU_FB (https://human.depo.msu.ru (accessed on 14 September 2021)). Cells were grown in DMEM media supplemented with 10% fetal bovine serum, 100 μg/mL gentamycin, and 2 mM of glutamine at 37 °C in a 5% CO2 atmosphere.
(§2) To carry out the MTT assay, 3500 cells per well were seeded in 96-well plates. A day after the seeding, triterpenoids or their derivatives dissolved in DMSO were added. DMSO was used as a control. At 48 h after cell seeding, 10 μL of 5 mg/mL Thiazolyl Blue (Paneko, Russia) solution was added to each well and cells were kept for 3 h at 37 °C in a CO2 incubator. After removing the thiazol-containing medium, 150 μL of isopropyl alcohol (supplemented with 40 mM HCl and 0.1% NP-40) was added to dissolve the MTT-formazan salt. The absorbance at 570 and 630 nm (reference) was measured using a BioRad iMark microplate reader (BioRad, Hercules, CA, USA). Four biological replicates were used for the experiment. The results were processed with Excel software (version number: 14.0.6023.1000 (32-bit)). IC50 values were calculated by using AAT Bioquest online calculator (https://www.aatbio.com/tools/ic50-calculator, accessed on 15 May 2023) and are represented as the mean ± SEM.

[2] = system: A549 cells (human lung carcinoma); experiment: MTT cytotoxicity assay, A549; assay type: cell-based; conditions: for IC50: MTT assay, 48 h of treatment, mean ± SEM
From the text: as §1
as §2, with “A day after the seeding, triterpenoids or their derivatives dissolved in DMSO were added.” left out, “At 48 h after cell seeding, 10 μL of 5 mg/mL Thiazolyl Blue (Paneko, Russia) solution was added to each well and cells were kept for 3 h at 37 °C in a CO2 incubator.” left out

[3] = system: MCF-7 cells (human breast adenocarcinoma); experiment: MTT cytotoxicity assay, MCF-7; assay type: cell-based; conditions: for IC50: Homo sapiens, MCF7, MTT assay, 48 h of treatment, mean ± SEM
From the text: as §1, §2

[4] = system: BT474 cells (human breast ductal carcinoma); experiment: MTT cytotoxicity assay, BT474; assay type: cell-based; conditions: BT-474, 48 h of treatment, mean ± SEM
From the text: as §1, §2

[5] = system: Human primary dermal fibroblasts (HPDF); experiment: MTT cytotoxicity assay, HPDF; assay type: cell-based; conditions: for IC50: Homo sapiens, Fibroblast, MTT assay, 48 h of treatment, mean ± SEM; for Selectivity against tumor cells and human fibroblasts: in words
From the text: as §1
as §2, with “A day after the seeding, triterpenoids or their derivatives dissolved in DMSO were added.” left out, “At 48 h after cell seeding, 10 μL of 5 mg/mL Thiazolyl Blue (Paneko, Russia) solution was added to each well and cells were kept for 3 h at 37 °C in a CO2 incubator.” left out

[6] = system: rat liver mitochondria; experiment: Respiration of isolated mitochondria fueled by glutamate and malate; assay type: biochemical
Description: (§3) Mitochondria were obtained from the liver of male Wistar rats (210–250 g) using the differential centrifugation method. The detailed procedure and composition of the isolation media were described earlier. The suspension of isolated mitochondria contained about 60–70 mg of mitochondrial protein per ml (determined by the Bradford method).
(§4) The rate of O2 consumption by mitochondrial samples was estimated using Oxygraph Plus (Hansatech Instruments Ltd., Pentney, King’s Lynn, UK). The reaction medium included 200 mM sucrose, 20 mM KCl, 0.5 mM EGTA, 5 mM KH2PO4, and 10 mM Hepes/KOH, pH 7.4. The following combinations of substrates and reagents were used: 2.5 mM potassium glutamate + 2.5 mM potassium malate and 5 mM potassium succinate + 1 µM rotenone. Under these conditions, it is possible to assess the oxygen-consuming capacity of mitochondria through complexes I and II of the electron transport chain. To determine the rates of the phosphorylating respiration (State 3) and uncoupled respiration (State 3UDNP) of the mitochondria, 200 µM ADP and 50 µM 2,4-dinitrophenol (DNP) were added sequentially. The concentration of mitochondrial protein was 1 mg/mL.

[7] = system: rat liver mitochondria; experiment: Respiration of isolated mitochondria fueled by succinate; assay type: biochemical
Description: as §3, §4

[8] = system: rat liver mitochondria; experiment: Mitochondrial membrane potential (TPP-sensitive electrode); assay type: biochemical; conditions: glutamate + malate or succinate + rotenone, Figure 5
Description: as §3
The mitochondrial membrane potential (Δψ) was measured using a penetrating tetraphenylphosphonium bromide (TPP) cation and a TPP-sensitive electrode (Nico-Analyte Ltd., Moscow, Russia) as described previously. The concentration of mitochondrial protein was 1 mg/mL.

[9] = system: BT474 cells; experiment: Oxidative stress assay (Muse Oxidative Stress Kit), BT474; assay type: cell-based, human; conditions: BT474, 3 μM
Description: Oxidative stress was assessed after cell culture and incubation (as described above). For this, cells were harvested by trypsinization, washed with ice-cold PBS buffer (pH 7.4), and centrifuged (1000 rpm, 5 min). The resulting cells were resuspended in PBS. Cell population analysis for oxidative stress was performed on a Muse cell analyzer (Merck Millipore, Burlington, MA, USA) using the Muse Oxidative Stress Kit (MCH100111) according to the manufacturer’s protocol.

[10] = Homo sapiens, NCI-H1299, 48 h of treatment

| Compound | IC50 [1, 10] [µM] | IC50 ([2]; Homo sapiens, A549, 48 h) [µM] | IC50 [2] [µM] | IC50 [3] [µM] | IC50 [4] [µM] | IC50 [5] [µM] | Selectivity against tumor cells and human fibroblasts [5] | ADP/O ([6]; 20 μM) [rel. un.] | RC (state 3/state 4) ([6]; 20 μM) [rel. un.] | State 2 respiration ([6]; 20 μM) [nmol O2/min/mg Protein] | State 3UDNP respiration ([6]; 20 μM) [nmol O2/min/mg Protein] | State 3 respiration ([6]; 20 μM) [nmol O2/min/mg Protein] | State 4 respiration ([6]; 20 μM) [nmol O2/min/mg Protein] | ADP/O ([7]; 20 μM) | RC (state 3/state 4) ([7]; 20 μM) [rel. un.] | State 2 respiration ([7]; 20 μM) [nmol O2/min/mg Protein] | State 3UDNP respiration ([7]; 20 μM) [nmol O2/min/mg Protein] | State 3 respiration ([7]; 20 μM) [nmol O2/min/mg Protein] | State 4 respiration ([7]; 20 μM) [nmol O2/min/mg Protein] | also measured |
| --- | --- | --- | --- | --- | --- | --- | --- | --- | --- | --- | --- | --- | --- | --- | --- | --- | --- | --- | --- | --- |
| CC1CCC2(C(=O)OCCCC[n+]3ccc(C=Cc4c[nH]c5ccccc45)cc3)CCC3(C)C(=CCC4C5(C)CC(O)C(O)C(C)(C)C5CCC43C)C2C1C (stereo not drawn) (as salt: bromide) [CA-F16, N-{4-[(2α,3β-dihydroxy-urs-12-en-28-oyl)-butyl]-(E)-4-[2-(1H-indol-3-yl)-vinyl]}pyridinium bromide] |  |  |  |  |  |  |  |  |  |  |  |  |  |  |  |  |  |  |  | melting point: 219 to 221 °C |
| CC1(C)CCC2(C(=O)OCCCC[n+]3ccc(C=Cc4c[nH]c5ccccc45)cc3)CCC3(C)C(=CCC4C5(C)CC(O)C(O)C(C)(C)C5CCC43C)C2C1 (stereo not drawn) (as salt: bromide) [MA-F16, N-{4-[(2α,3β-dihydroxy-olean-12-en-28-oyl)-butyl]-(E)-4-[2-(1H-indol-3-yl)-vinyl]}pyridinium bromide] |  |  |  |  |  |  |  |  |  |  |  |  |  |  |  |  |  |  |  | melting point: 206 to 208 °C |
| CC1CCC2(C(=O)OCCCC[n+]3ccc(C=Cc4c[nH]c5ccccc45)cc3)CCC3(C)C(=CCC4C5(C)CC(O)C(O)C(C)(C)C5CCC43C)C2C1C (stereo not drawn) [CA-F16, N-{4-[(2α,3β-dihydroxy-urs-12-en-28-oyl)-butyl]-(E)-4-[2-(1H-indol-3-yl)-vinyl]}pyridinium bromide] | 4.01 ± 1.69 | 1.9 | 1.87 ± 0.14 | 1.89 ± 0.27 | 6.7 ± 0.35 | 1.15 ± 0.38 |  |  |  |  |  |  |  |  |  |  |  |  |  | Cytotoxicity higher than that of ursolic acid ([2]; A549 line, ratio of IC50 values): 36 times |
| CC1(C)CCC2(C(=O)OCCCC[n+]3ccc(C=Cc4c[nH]c5ccccc45)cc3)CCC3(C)C(=CCC4C5(C)CC(O)C(O)C(C)(C)C5CCC43C)C2C1 (stereo not drawn) [MA-F16, N-{4-[(2α,3β-dihydroxy-olean-12-en-28-oyl)-butyl]-(E)-4-[2-(1H-indol-3-yl)-vinyl]}pyridinium bromide] | 10.5 ± 2.44 | 13.5 ± 2.02 |  | 7.44 ± 0.78 | 11.1 ± 2.51 | 9.3 ± 2.56 |  |  |  |  |  |  |  |  |  |  |  |  |  |  |
| CC1(C)CC[C@]2(C(=O)O)CC[C@]3(C)C(=CC[C@@H]4[C@@]5(C)CC[C@H](O)C(C)(C)[C@@H]5CC[C@]43C)[C@@H]2C1 [OA, oleanolic acid, reference compound] |  | 236 | 234 ± 22.1 | 114 ± 12.6 | 150 ± 25.1 | 156 ± 10.4 | have not shown selectivity | 2.53 ± 0.12 | 2.11 ± 0.12 | 8.39 ± 0.09 | 35.74 ± 0.66 | 27.31 ± 0.31 | 13.23 ± 0.18 | 1.45 ± 0.05 rel. un. | 2.80 ± 0.09 | 15.06 ± 0.15 | 69.92 ± 0.68 | 48.00 ± 0.60 | 17.18 ± 0.78 | IC50 ([1]; 48 h of treatment): 139 ± 6.85 µM; IC50 ([1]; Homo sapiens, NCI-H1299, 48 h, 48 h of treatment): 139 µM; Effect on membrane potential of organelles [8]: slightly reduce the membrane potential |
| C[C@H]1[C@H](C)CC[C@]2(C(=O)O)CC[C@]3(C)C(=CC[C@@H]4[C@@]5(C)CC[C@H](O)C(C)(C)[C@@H]5CC[C@]43C)[C@H]12 [UA, ursolic acid, reference compound] | 97.6 ± 5.63 | 68.9 | 68.9 ± 19.6 | 40.6 ± 12.5 | 110 ± 19.1 | 59.1 ± 7.73 | have not shown selectivity | 2.82 ± 0.03 | 2.13 ± 0.09 | 8.01 ± 0.15 | 36.66 ± 1.47 | 26.92 ± 0.64 | 12.65 ± 0.32 | 1.43 ± 0.04 rel. un. | 3.32 ± 0.12 | 15.19 ± 0.27 | 75.91 ± 1.74 | 49.15 ± 0.30 | 15.54 ± 0.62 | Effect on membrane potential of organelles [8]: did not show such an ability |
| CC1CCC2(C(=O)OCCCC[n+]3ccc(C=Cc4c[nH]c5ccccc45)cc3)CCC3(C)C(=CCC4C5(C)CCC(O)C(C)(C)C5CCC43C)C2C1C (stereo not shown) [UA-F16] | 2.8 ± 0.25 | 2.4 ± 0.3 |  | 1.36 ± 0.74 | 5.18 ± 0.15 | 4.98 ± 0.9 | highest selectivity | 0.74 ± 0.14 | 1.02 ± 0.02 | 14.75 ± 0.21 | 28.29 ± 1.18 | 19.35 ± 0.90 | 19.06 ± 1.11 | 0.86 ± 0.05 *#^γ rel. un. | 1.37 ± 0.11 | 15.86 ± 0.40 | 64.18 ± 3.81 | 43.98 ± 1.31 | 32.20 ± 1.68 | Chou–Talalay combination index (CI) ([3]; MCF7 cells, based on IC50 values for parent acid, F16 [23] and conjugate, CI < 1 synergism): 0.05; Selectivity index (SI) ([5]; between tumor cells H1299, A549 and MCF-7 and fibroblasts): 1.8–3.7; Effect on level of ROS-positive cells [9]: significantly increase the level of ROS-positive cells; ADP/O ([6]; 10 μM): 2.65 ± 0.05 rel. un.; RC (state 3/state 4) ([6]; 10 μM): 2.20 ± 0.04 rel. un.; State 2 respiration ([6]; 10 μM): 7.70 ± 0.33 nmol O2/min/mg Protein; State 3UDNP respiration ([6]; 10 μM): 35.23 ± 0.89 nmol O2/min/mg Protein; State 3 respiration ([6]; 10 μM): 25.89 ± 0.86 nmol O2/min/mg Protein; State 4 respiration ([6]; 10 μM): 11.78 ± 0.22 nmol O2/min/mg Protein; ADP/O ([7]; 10 μM): 1.28 ± 0.04 rel. un.; RC (state 3/state 4) ([7]; 10 μM): 2.65 ± 0.07 rel. un.; State 2 respiration ([7]; 10 μM): 14.42 ± 0.24 nmol O2/min/mg Protein; State 3UDNP respiration ([7]; 10 μM): 67.34 ± 2.12 nmol O2/min/mg Protein; State 3 respiration ([7]; 10 μM): 46.39 ± 0.30 nmol O2/min/mg Protein; State 4 respiration ([7]; 10 μM): 17.51 ± 0.23 nmol O2/min/mg Protein |
